# Experimental data published in US10322111B2, “Chemokine receptor binding heterocyclic compounds with enhanced efficacy” (Genzyme Corporation, priority 2001, dated 2019).
# Experiments:
# [1] = system: circulating CD34+ progenitor/stem cells; details: single dose of 80 μg/kg, cited from earlier work
# bone marrow stem cells = details: rats, coronary artery ligation, administered within hours after cardiac ischemia, with or without rhG-CSF
# Protocol: Adult rats are anesthetized and a thoracotomy is performed. The descending branch of the left coronary artery is ligated and not reperfused. […] Control rats are not treated with the reagents. The animals are monitored at one-week intervals by echocardiography and MRI. […] On the day of sacrifice, the hemodynamic functions are analyzed for left ventricle-end diastolic pressure, left ventricle-developed pressure and the rate of rise and fall of left ventricle pressure. The heart is then arrested in diastole and perfused via the abdominal aorta to flush residual blood from the vascular network of the myocardium. […] Several slices are made through the fixed heart and these are embedded in paraffin and sections. The sections are stained and analyzed by light microscopy to determine the size of the infarct in the treated and control animals. […] The immunohistochemical analysis involves the identification of transcription factors and surface markers expressed in early stages of myocyte development.
compound,measurement,setting,value
c1cc(CN2CCCNCCNCCCNCC2)ccc1CN1CCCNCCNCCCNCC1 [AMD-3100],peak increase in circulating CD34+ progenitor/stem cells,[1]; 6 hour time point,6 fold
same,WBC count,[1],"17,000 μl"
same,cardiac remodeling and scar formation,bone marrow stem cells,block to cardiac remodeling and scar formation
same,mobilization of bone marrow stem cells,bone marrow stem cells,mobilizes bone marrow stem cells rapidly
same,regeneration of myocardium,bone marrow stem cells,regeneration of the dead myocardium
